Test results reported in patent US20240368163A1, “COMPOUNDS AND METHODS FOR MODULATING SPLICING” (REMIX THERAPEUTICS INC., priority 2021, published 2024).
pIC50: −log10 of the molar value. Read-outs that look alike come from different tables or passages of the source.

Columns and labels:
HTT = experiment: Splicing RT-qPCR assay, HTT mRNA canonical junction (CJ) and alternative junction (AJ); type: cell-based, human; details: for AC50: increase in AJ mRNA
Method in brief: (§1)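 A673 or K562 cells were treated 24 h at 37 °C with an 11-point 3-fold dilution series (top 10 uM final, DMSO ≤0.25%). Lysates underwent one-step RT-qPCR for canonical (CJ) and alternative (AJ) junctions; Ct normalized to GAPDH, GUSB or PPIA and DMSO control via 2^(−ΔΔCt), expressed as percentage response.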

[1] = Transwell assay for membrane efflux and permeability; type: in vitro ADME, Canine; details: dog; MDCK-BCRP or MDCKII-MDR1 transwell, test compound 1 μM, 2 hours at 37° C.
Text: Compounds described herein were screened for cell membrane permeability and efflux in a transwell assay using Madin-Darby Canine Kidney (MDCK) cells expressing Breast Cancer Resistance Protein (BCRP) or subclone MDCKII cells expressing Multidrug Resistance Protein 1 (MDR1).
MDCK-BCRP or MDCKII-MDR1 Cells: The Netherlands Cancer Institute, High Glucose Dulbecco's Modified Eagle's Medium (DMEM): Gibco/Thermo Fisher Scientific, Fetal Bovine Serum (FBS): Coming, Hank's Balanced Salt Solution (HBSS) and Trypsin/EDTA: Gibco/Thermo Fisher Scientific, HTS Transwell-96 Well Permeable Supports: Coming Corporation, Millicell Epithelial Volt-Ohm: Millipore, Cellometer® Vision: Nexcelom Bioscience LLC, Infinite 200 PRO microplate reader: Tecan, MTS2/4 orbital shaker: IKA Labortechnik, HEPES/Penicillin/Streptomycin: Solarbio.
MDCK-BCRP or MDCKII-MDR1 cells were seeded to each of the wells of the transwell plate at a density of 1.6×10^6 cells/mL and the plate was incubated for 4-8 days with medium changes every two days. To perform the drug transport assay, cell monolayers were first washed three times with pre-warmed HBSS and then incubated with gentle shaking (150 rpm) for 30 min at 37° C. Stock solutions of test compounds (e.g., exemplary compounds of Formulas (I), (II), and (III)) and control compounds (e.g., metoprolol, prazosin, and/or imatinib) were prepared in DMSO and adjusted to a working solution using HBSS. The final concentration of test compounds was 1 μM with DMSO; 0.5%. The plates were incubated at 37° C. for 2 hours.

Target C = experiment: Splicing RT-qPCR panel, Target C canonical junction (CJ) mRNA; type: cell-based, human; details: RT-qPCR panel, canonical junction mRNA, compound concentration having 50% response in CJ decrease, read-out: Target C IC50 (decrease in CJ mRNA levels)
Method in brief: as §1

[2] = Homo sapiens, 24 h, decrease in CJ mRNA, A673 or K562 cells, 24 hours treatment, RT-qPCR, read-out: HTT CJ IC50
[3] = Homo sapiens, 24 h, A673 or K562 cells, 24 hours treatment, RT-qPCR
[4] = Homo sapiens, RT-qPCR panel, canonical junction mRNA, compound concentration having 50% response in CJ decrease, read-out: HTT IC50 (decrease in CJ mRNA levels)

| Compound | pIC50 (HTT; [2]) | AC50 (HTT; [3]) [nM] | pIC50 (HTT; [4]) | Papp at 2 h, 1 μM [1] [×10⁻⁶ cm/s] | efflux ratio at 2 h, 1 μM [1] | pIC50 (Target C; Homo sapiens) | pIC50 (HTT; RT-qPCR panel, canonical junction mRNA, compound concentration having 50% response in CJ decrease, read-out: HTT IC50 (decrease in CJ mRNA levels)) | pIC50 (HTT; decrease in CJ mRNA, A673 or K562 cells, 24 hours treatment, RT-qPCR, read-out: HTT CJ IC50) | pIC50 (Target C) |
| --- | --- | --- | --- | --- | --- | --- | --- | --- | --- |
| CN(c1ccc(-c2ccc(-c3cnn(C)c3)c3cn[nH]c23)nn1)C1CCNCC1 [Compound 242] | < 5.00 | > 10000 | < 5.00 | < 2 | > 5 | < 5.00 |  |  |  |
| CN(c1ccc(-c2cc(F)c(-c3cnn(C)c3)c3cn[nH]c23)nn1)[C@@H]1C[C@H]2CC[C@@H](C1)N2 [Compound 291] |  | < 100 | > 7.00 | < 2 | > 5 | > 7.00 |  |  |  |
| c1n[nH]cc1-c1ccc(-c2ccc(N[C@@H]3C[C@H]4CCC[C@@H](C3)N4)nn2)c2[nH]ncc12 [Compound 294] | 6.00 to 7.00 | 100 to 1000 | 6.00 to 7.00 | < 2 | 1.5 to 5 | 6.00 to 7.00 |  |  |  |
| CC1(C)CC(Oc2ccc(-c3cc(F)c(-c4cn[nH]c4)c4cn[nH]c34)nn2)CC(C)(C)N1 [Compound 307] | 6.00 to 7.00 | 100 to 1000 | 6.00 to 7.00 | 2 to 6 | > 5 | 6.00 to 7.00 |  |  |  |
| c1nc2c(-c3cn[nH]c3)ccc(-c3ccc(N(C4CC4)C4C[C@H]5CCC[C@@H](C4)N5)nn3)c2s1 (some centres unmarked) [Compound 311] |  | < 100 | > 7.00 | < 2 | > 5 | 6.00 to 7.00 |  |  |  |
| Fc1cc(-c2ccc(OC3CC4CC(F)(F)C(C3)N4)nn2)c2[nH]ncc2c1-c1cn[nH]c1 (centres unmarked) [Compound 313, 7-[6-({6,6-difluoro-8-azabicyclo[3.2.1]octan-3-yl}oxy)pyridazin-3-yl]-5-fluoro-4-(1H-pyrazol-4-yl)-1H-indazole] |  | 100 to 1000 | > 7.00 |  | < 1.5 | 6.00 to 7.00 |  |  |  |
| Fc1cc(-c2ccc(O[C@@H]3C[C@H]4CC[C@@H](C3)N4)nn2)c2sncc2c1-c1cn[nH]c1 [Compound 327] |  | < 100 | > 7.00 | 2 to 6 | > 5 | > 7.00 |  |  |  |
| COc1cc(-c2ccc(-c3ccc(N(C)C4CC(C)(C)NC(C)(C)C4)nn3)c3scnc23)cnn1 [Compound 330] |  | < 100 | > 7.00 | 2 to 6 | > 5 | > 7.00 |  |  |  |
| CC(C)(C)NC1CCN(c2ccc(-c3ccc(-c4cn[nH]c4)c4ncsc34)nn2)C1 (centres unmarked) [Compound 336] |  |  |  | 2 to 6 | > 5 |  | 6.00 to 7.00 | 6.00 to 7.00 | < 5.00 |
| c1nc2c(-c3cn[nH]c3)ccc(-c3ccc(N4CCC(NC5CC5)C4)nn3)c2s1 (centres unmarked) [Compound 337] | < 5.00 | 1000 to 10000 | < 5.00 | 2 to 6 | < 1.5 | < 5.00 |  |  |  |
| Fc1cc(-c2ccc(N[C@@H]3C[C@H]4CC[C@@H](C3)N4)nn2)c2scnc2c1-c1cn[nH]c1 [Compound 339] |  | < 100 | > 7.00 | < 2 | 1.5 to 5 | > 7.00 |  |  |  |
| Cc1ncc(-c2ccc(-c3ccc(O[C@@H]4C[C@H]5CC[C@@H](C4)N5)nn3)c3scnc23)s1 [Compound 348, 7-{6-[(exo)-8-azabicyclo[3.2.1]octan-3-yloxy]pyridazin-3-yl}-4-(2-methyl-1,3-thiazol-5-yl)-1,3-benzothiazole] |  | 100 to 1000 | > 7.00 | < 2 | > 5 | 6.00 to 7.00 |  |  |  |
| COc1cc(-c2ccc(-c3ccc(O[C@@H]4C[C@H]5CC[C@@H](C4)N5)nn3)c3scnc23)cnn1 [Compound 362] |  | < 100 | > 7.00 | 2 to 6 | > 5 | 6.00 to 7.00 |  |  |  |
| Fc1ccn(-c2ccc(-c3ccc(O[C@@H]4C[C@H]5CC[C@@H](C4)N5)nn3)c3scnc23)n1 [Compound 363] |  | 100 to 1000 | > 7.00 | < 2 | 1.5 to 5 | 6.00 to 7.00 |  |  |  |
| CN(c1ncc(-c2ccc(-n3cccn3)c3[nH]ncc23)nn1)[C@@H]1C[C@H]2CCC[C@@H](C1)N2 [Compound 551] |  |  | > 7.00 | 2 to 6 | > 5 | > 7.00 |  |  |  |
| c1cnn(-c2ccc(-c3cnc(N[C@@H]4C[C@H]5CC[C@@H](C4)N5)nn3)c3cn[nH]c23)c1 [Compound 556] |  |  | > 7.00 | 2 to 6 | > 5 | 6.00 to 7.00 |  |  |  |
| c1cnn(-c2ccc(-c3cnc(N[C@@H]4C[C@H]5CCC[C@@H](C4)N5)nn3)c3cn[nH]c23)c1 [Compound 561] |  |  | > 7.00 | 2 to 6 | > 5 | 6.00 to 7.00 |  |  |  |
| CC(C)(C)C1CN(c2ncc(-c3ccc(-n4cccn4)c4[nH]ncc34)nn2)CCN1 (centres unmarked) [Compound 572] |  |  | > 7.00 | < 2 | < 1.5 | 6.00 to 7.00 |  |  |  |
| CN(c1ncc(-c2ccc(-n3cncn3)c3[nH]ncc23)nn1)[C@@H]1C[C@H]2CCC[C@@H](C1)N2 [Compound 574] |  |  | > 7.00 | < 2 | > 5 | > 7.00 |  |  |  |
| CN(c1ncc(-c2ccc(-n3ccnn3)c3[nH]ncc23)nn1)[C@@H]1C[C@H]2CCC[C@@H](C1)N2 [Compound 576] |  |  | > 7.00 | < 2 | > 5 | 6.00 to 7.00 |  |  |  |
| Cc1ncc(-c2ccc(-c3cnc(N(C)[C@@H]4C[C@H]5CCC[C@@H](C4)N5)nn3)c3scnc23)s1 [Compound 578] |  |  | > 7.00 | < 2 | > 5 | 6.00 to 7.00 |  |  |  |
| Cc1nc(-c2ccc(-c3cnc(N(C)[C@@H]4C[C@H]5CCC[C@@H](C4)N5)nn3)c3scnc23)cs1 [Compound 579] |  |  | 6.00 to 7.00 | < 2 | > 5 | 6.00 to 7.00 |  |  |  |
| Cc1cc(-c2ccc(-c3cnc(N(C)[C@@H]4C[C@H]5CCC[C@@H](C4)N5)nn3)c3scnc23)sn1 [Compound 580] |  |  | > 7.00 | < 2 | > 5 | > 7.00 |  |  |  |
| CC(C)(C)[C@H]1CN(c2ncc(-c3ccc(-n4cccn4)c4[nH]ncc34)nn2)CCN1 [Compound 581] |  |  | > 7.00 | 2 to 6 | < 1.5 | 6.00 to 7.00 |  |  |  |
